From US8703224B2, “Method to improve water solubility of Rebaudioside D” (PepsiCo, Inc., priority 2009, dated 2014)
One block for each compound: values may come before it.

Columns and labels:
[1] = cited from earlier work
[2] = Water solubility experiment, anhydrous versus non-anhydrous form, solubility versus temperature; assay type: physicochemical; conditions: after cooling to room temperature and sitting on a bench-top overnight
[3] = Dissolution in water with heating, then cooling to room temperature (stable solution test); assay type: physicochemical
[4] = HPLC (ELSD/UV) analysis after heating at 100° C. for 120 hours; assay type: physicochemical; conditions: after heating 120 hours at 100° C.
Description: It was discovered that upon heating commercially available Reb D, believed to be a non-anhydrous form of Reb D (i.e., hydrate), compound in an oven to a temperature of 100° C. for 120 hours, a thermally stable anhydrous Reb D product was obtained. […] The top graph indicates ELSD detection, and the bottom graph indicates UV detection results taken at a wavelength of 210 nm.
Additional HPLC chromatogram analysis was performed using both an anhydrous sample of Reb D (i.e., after the sample had undergone the process of heating for 120 hours at 100° C.) and a sample that had undergone heating for 24 hours. […] A decomposition peak estimated to be in the range of 2% of the total mass was found in the analysis results from the anhydrous Reb D sample, but its structure was not determined.

[5] = Oven heating for two hours, mass loss and HPLC check for decomposition; assay type: physicochemical; conditions: for Net Loss (weight %) / Net Loss: oven, two hours; for Net Loss: 50 g sample
Description: An experiment was performed on four samples (50 g each) of commercially available Reb D. The samples were each heated in an oven for two hours at one of four temperatures: 70°, 80°, 90° and 100° C. The samples were then immediately cooled and weighed to determine any loss in mass. Each sample, including the initial sample, was analyzed using gradient reversed-phase High Performance Liquid Chromatography (HPLC) with Evaporative Light Scattering Detection (ELSD) and Ultra-Violet (UV) detection methods to determine if any significant decomposition occurred.

[6] = Thermal Gravimetric Analysis (TGA); assay type: physicochemical; conditions: 2 mg sample, 10° C./min
Description: In a complementary experiment, commercially available Reb D was examined by Thermal Gravimetric Analysis (TGA). TGA is a type of test that may be performed to determine changes in weight as a function of temperature. The method may be used to determine loss of water, or any other volatiles in a compound as it is heated. A derivative weight loss curve can be used to determine at what temperature weight loss is most apparent. A 2 mg sample was placed into a sample boat on a microgram balance (accurate to +/−1 μg) and heated while monitoring the mass. The temperature was increased at 10° C./min while continuing to monitor the mass and graphing the result as a percentage of the original mass. The results from this analysis are shown in FIG. 2 and indicate mass loss beginning at about 50° C. and continuing to about 104° C. and then remaining stable until reaching approximately 260° C., whereupon a large loss of mass was recorded, which corresponds to the decomposition temperature.

[7] = Differential Scanning calorimetry (DSC); conditions: 40°-300° C., heating at 10° C./min

SMILES: C=C1C[C@@]23CC[C@H]4[C@@](C)(CCC[C@@]4(C)C(=O)O[C@@H]4O[C@H](CO)[C@@H](O)[C@H](O)[C@H]4O)[C@@H]2CC[C@]1(O[C@@H]1O[C@H](CO)[C@@H](O)[C@H](O[C@@H]2O[C@H](CO)[C@@H](O)[C@H](O)[C@H]2O)[C@H]1O[C@@H]1O[C@H](CO)[C@@H](O)[C@H](O)[C@H]1O)C3 [Reb A, Rebaudioside A]
solubility in aqueous solution ([1]; room temperature): at least 3000 ppm

appearance of water solution [2]: stayed as a clear solution
time at room temperature with no precipitating out of solution ([3]; 3000 ppm solution after cooling): at least 24 hours
solution concentration ([3]; dissolved in water with heating, cooled to room temperature): 3000 ppm
decomposition by HPLC retention values [4]: no significant level of decomposition
impurity at the 14.1 minute elution mark ([4]; FIG. 6): about 5 % of the total mass
decomposition peak ([4]; FIG. 7): ~2 % of the total mass
SMILES: C=C1C[C@@]23CC[C@H]4[C@@](C)(CCC[C@@]4(C)C(=O)O[C@@H]4O[C@H](CO)[C@@H](O)[C@H](O)[C@H]4O[C@@H]4O[C@H](CO)[C@@H](O)[C@H](O)[C@H]4O)[C@@H]2CC[C@]1(O[C@@H]1O[C@H](CO)[C@@H](O)[C@H](O[C@@H]2O[C@H](CO)[C@@H](O)[C@H](O)[C@H]2O)[C@H]1O[C@@H]1O[C@H](CO)[C@@H](O)[C@H](O)[C@H]1O)C3 [anhydrous Reb D, Rebaudioside D]

appearance of water solution ([2]; listed as Reb D hydrate): full of precipitate
decomposition by HPLC ([5]; after two hours at 70°, 80°, 90° and 100° C.): little to no decomposition
Net Loss (weight %) ([5]; 70° C.): 0.38 weight %
Net Loss ([5]; 70° C.): 0.19 g
Net Loss (weight %) ([5]; 80° C.): 0.48 weight %
Net Loss ([5]; 80° C.): 0.24 g
Net Loss (weight %) ([5]; 90° C.): 0.76 weight %
Net Loss ([5]; 90° C.): 0.38 g
Net Loss (weight %) ([5]; 100° C.): 1.36 weight %
Net Loss ([5]; 100° C.): 0.68 g
decomposition temperature (large loss of mass) [6]: approximately 260 °C
stable solubility in aqueous solution (room temperature): no more than 450 ppm
temperature of apparent decomposition (large endothermic event) [7]: about 260 °C
SMILES: C=C1C[C@@]23CC[C@H]4[C@@](C)(CCC[C@@]4(C)C(=O)O[C@@H]4O[C@H](CO)[C@@H](O)[C@H](O)[C@H]4O[C@@H]4O[C@H](CO)[C@@H](O)[C@H](O)[C@H]4O)[C@@H]2CC[C@]1(O[C@@H]1O[C@H](CO)[C@@H](O)[C@H](O[C@@H]2O[C@H](CO)[C@@H](O)[C@H](O)[C@H]2O)[C@H]1O[C@@H]1O[C@H](CO)[C@@H](O)[C@H](O)[C@H]1O)C3 [Reb D, Rebaudioside D]
precipitation after cooling ([3]; dissolved in water with heating and allowed to cool): precipitating out of solution within a number of hours
behaviour of heated solution upon cooling (cooled to room temperature (e.g., 25° C.)): precipitates back out of solution within a few hours

SMILES: C=C1C[C@@]23CC[C@H]4[C@@](C)(CCC[C@@]4(C)C(=O)O[C@@H]4O[C@H](CO)[C@@H](O)[C@H](O)[C@H]4O)[C@@H]2CC[C@]1(O[C@@H]1O[C@H](CO)[C@@H](O)[C@H](O)[C@H]1O[C@@H]1O[C@H](CO)[C@@H](O)[C@H](O)[C@H]1O)C3 [Stevioside]
solubility in water ([1]; in words): only sparingly soluble in water
